Results reported in PubChem BioAssay AID1845204 (Molecular Pharmacology Branch, DTP, NCI, 2023).

Tested on: HSSY-II tumor spheroid viability
Assay: Anticancer human tumor HSSY-II cell line growth inhibition;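 further: spheroids exposed to compounds for seven days before reading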;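 on viability, T/C: percent of DMSO vehicle control viability so 100% = untreated level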
Conditions: spheroids with HUVEC and MSC; for IC50: curve of first compound; for viability, T/C: stronger effect = lower value
How it was run: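 Complex spheroids of malignant cells with endothelial cells and mesenchymal stem cells; agents alone or combined, from near clinical Cmax (or 10 microM if unknown) down in half-log steps, 0.25% DMSO final.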

[1] = second compound 30 pM, first compound 0.0316 µM
[2] = second compound 30 pM, first compound 0.1 µM
[3] = second compound 30 pM, first compound 0.316 µM
[4] = second compound 30 pM, first compound 1 µM
[5] = second compound 30 pM, first compound 3.16 µM
[6] = second compound 30 pM, first compound 10 µM
[7] = second compound 94.9 pM, first compound 0.0316 µM
[8] = second compound 94.9 pM, first compound 0.1 µM
[9] = second compound 94.9 pM, first compound 0.316 µM
[10] = second compound 94.9 pM, first compound 1 µM
[11] = second compound 94.9 pM, first compound 3.16 µM
[12] = second compound 94.9 pM, first compound 10 µM
[13] = second compound 0.0003 µM, first compound 0.0316 µM
[14] = second compound 0.0003 µM, first compound 0.1 µM
[15] = second compound 0.0003 µM, first compound 0.316 µM
[16] = second compound 0.0003 µM, first compound 1 µM
[17] = second compound 0.0003 µM, first compound 3.16 µM
[18] = second compound 0.0003 µM, first compound 10 µM
[19] = second compound 0.000949 µM, first compound 0.0316 µM
[20] = second compound 0.000949 µM, first compound 0.1 µM
[21] = second compound 0.000949 µM, first compound 0.316 µM
[22] = second compound 0.000949 µM, first compound 1 µM
[23] = second compound 0.000949 µM, first compound 3.16 µM
[24] = second compound 0.000949 µM, first compound 10 µM
[25] = second compound 0.003 µM, first compound 0.0316 µM
[26] = second compound 0.003 µM, first compound 0.1 µM
[27] = second compound 0.003 µM, first compound 0.316 µM
[28] = second compound 0.003 µM, first compound 1 µM
[29] = second compound 0.003 µM, first compound 3.16 µM
[30] = second compound 0.003 µM, first compound 10 µM

| SMILES | IC50 (second compound 30 pM) [nM] | IC50 (second compound 94.9 pM) [nM] | IC50 (second compound 0.0003 µM) [nM] | IC50 (second compound 0.000949 µM) [nM] | IC50 (second compound 0.003 µM) [nM] | viability, T/C [1] [%] | viability, T/C [2] [%] | viability, T/C [3] [%] | viability, T/C [4] [%] | viability, T/C [5] [%] | viability, T/C [6] [%] | viability, T/C [7] [%] | viability, T/C [8] [%] | viability, T/C [9] [%] | viability, T/C [10] [%] | viability, T/C [11] [%] | viability, T/C [12] [%] | viability, T/C [13] [%] | viability, T/C [14] [%] | viability, T/C [15] [%] | also measured |
| --- | --- | --- | --- | --- | --- | --- | --- | --- | --- | --- | --- | --- | --- | --- | --- | --- | --- | --- | --- | --- | --- |
| CC(C)n1c(=O)n(C)c2cnc3cc(F)c(-c4ccc(OCCCN5CCCCC5)nc4)cc3c21 + COc1cc2c(cc1O)CCNC21CSC2c3c(OC(C)=O)c(C)c4c(c3C(COC1=O)N1C(O)C3Cc5cc(C)c(OC)c(O)c5C(C21)N3C)OCO4 | > 10000 | 7160 | < 31.6 | < 31.6 | < 31.6 | 128 | 120 | 109 | 114 | 91.9 | 71.4 | 75.3 | 73.6 | 70 | 84.1 | 73.3 | 40.2 | 13.2 | 13.8 | 18 | viability, T/C [16]: 17.2%; viability, T/C [17]: 13.9%; viability, T/C [18]: 15.2%; viability, T/C [19]: 3.04%; viability, T/C [20]: 3.45%; viability, T/C [21]: 3.44%; viability, T/C [22]: 5.73%; viability, T/C [23]: 4.91%; viability, T/C [24]: 3.99%; viability, T/C [25]: 0.18%; viability, T/C [26]: 0.2%; viability, T/C [27]: 0.22%; viability, T/C [28]: 0.2%; viability, T/C [29]: 0.2%; viability, T/C [30]: 0.31% |
| CC1COCCN1c1cc(-c2ccnn2C)c2ccnc(-c3ccn[nH]3)c2n1 (stereo not given) + COc1cc2c(cc1O)CCNC21CSC2c3c(OC(C)=O)c(C)c4c(c3C(COC1=O)N1C(O)C3Cc5cc(C)c(OC)c(O)c5C(C21)N3C)OCO4 | < 31.6 | < 31.6 | < 31.6 | < 31.6 | < 31.6 | 14.4 | 6.1 | 4.22 | 3.28 | 3.45 | 5.25 | 8.99 | 6.52 | 3.33 | 2.89 | 3.13 | 4.37 | 5.86 | 5.4 | 3.44 | viability, T/C [16]: 2.22%; viability, T/C [17]: 1.93%; viability, T/C [18]: 2.79%; viability, T/C [19]: 2.32%; viability, T/C [20]: 1.87%; viability, T/C [21]: 1.51%; viability, T/C [22]: 0.74%; viability, T/C [23]: 0.11%; viability, T/C [24]: 0.34%; viability, T/C [25]: 0.49%; viability, T/C [26]: 0.59%; viability, T/C [27]: 0.48%; viability, T/C [28]: 0.35%; viability, T/C [29]: 0.32%; viability, T/C [30]: 0.51% |
| COc1cc(C)[nH]c(=O)c1CN1CCc2c(Cl)cc(C(OC)C3COC3)c(Cl)c2C1=O (stereo not given) + COc1cc2c(cc1O)CCNC21CSC2c3c(OC(C)=O)c(C)c4c(c3C(COC1=O)N1C(O)C3Cc5cc(C)c(OC)c(O)c5C(C21)N3C)OCO4 | > 10000 | > 10000 | < 31.6 | < 31.6 | < 31.6 | 132 | 117 | 108 | 92.5 | 86 | 90.1 | 121 | 99.9 | 97.8 | 89.7 | 81.4 | 70.8 | 20.1 | 15.3 | 19.4 | viability, T/C [16]: 23.8%; viability, T/C [17]: 21.3%; viability, T/C [18]: 19.3%; viability, T/C [19]: 3.35%; viability, T/C [20]: 3.82%; viability, T/C [21]: 3.22%; viability, T/C [22]: 4.24%; viability, T/C [23]: 4.87%; viability, T/C [24]: 4.39%; viability, T/C [25]: 0.33%; viability, T/C [26]: 0.35%; viability, T/C [27]: 0.32%; viability, T/C [28]: 0.3%; viability, T/C [29]: 0.32%; viability, T/C [30]: 0.52% |
| COc1ccc([C@@H](O)c2cc(-c3ncnc4cc(N5CCOCC5)ccc34)c(F)cc2Cl)nn1 + COc1cc2c(cc1O)CCNC21CSC2c3c(OC(C)=O)c(C)c4c(c3C(COC1=O)N1C(O)C3Cc5cc(C)c(OC)c(O)c5C(C21)N3C)OCO4 | 1670 | 686 | < 31.6 | < 31.6 | < 31.6 | 117 | 114 | 93.3 | 67.1 | 29.7 | 6.65 | 101 | 93.8 | 75.6 | 38.6 | 7.08 | 1.86 | 16.7 | 10.5 | 7.96 | viability, T/C [16]: 3.36%; viability, T/C [17]: 0.77%; viability, T/C [18]: 0.17%; viability, T/C [19]: 2.36%; viability, T/C [20]: 2.67%; viability, T/C [21]: 0.85%; viability, T/C [22]: 0.08%; viability, T/C [23]: 0.11%; viability, T/C [24]: 0.22%; viability, T/C [25]: 0.22%; viability, T/C [26]: 0.26%; viability, T/C [27]: 0.22%; viability, T/C [28]: 0.24%; viability, T/C [29]: 0.25%; viability, T/C [30]: 0.34% |
| Cc1cc(C)c(CNC(=O)c2cc(-c3ccc(CN4CCOCC4)cc3)cc3c2cnn3C2CCCC2)c(=O)[nH]1 + COc1cc2c(cc1O)CCNC21CSC2c3c(OC(C)=O)c(C)c4c(c3C(COC1=O)N1C(O)C3Cc5cc(C)c(OC)c(O)c5C(C21)N3C)OCO4 | > 10000 | 8460 | < 31.6 | < 31.6 | < 31.6 | 106 | 106 | 108 | 108 | 107 | 76.6 | 92.4 | 100 | 91.3 | 86 | 79.4 | 45.1 | 15.2 | 15.1 | 13.4 | viability, T/C [16]: 11.8%; viability, T/C [17]: 12.4%; viability, T/C [18]: 11.8%; viability, T/C [19]: 2.63%; viability, T/C [20]: 2.57%; viability, T/C [21]: 2.16%; viability, T/C [22]: 2.23%; viability, T/C [23]: 2.69%; viability, T/C [24]: 1.43%; viability, T/C [25]: 0.15%; viability, T/C [26]: 0.17%; viability, T/C [27]: 0.17%; viability, T/C [28]: 0.15%; viability, T/C [29]: 0.17%; viability, T/C [30]: 0.22% |
| [2H]c1nc(C)nc([2H])c1-c1cc(NC[C@@H](C)c2cccc3c(C(=O)NC)ccnc23)ncn1 + COc1cc2c(cc1O)CCNC21CSC2c3c(OC(C)=O)c(C)c4c(c3C(COC1=O)N1C(O)C3Cc5cc(C)c(OC)c(O)c5C(C21)N3C)OCO4 | > 10000 | > 10000 | < 31.6 | < 31.6 | < 31.6 | 98 | 93.5 | 95.2 | 99.1 | 94.2 | 86.2 | 86.5 | 89 | 92.5 | 88.4 | 92.1 | 78.3 | 16.1 | 16 | 17.8 | viability, T/C [16]: 14.6%; viability, T/C [17]: 9.62%; viability, T/C [18]: 12%; viability, T/C [19]: 2.64%; viability, T/C [20]: 1.58%; viability, T/C [21]: 3.44%; viability, T/C [22]: 3.49%; viability, T/C [23]: 2.59%; viability, T/C [24]: 1.53%; viability, T/C [25]: 0.15%; viability, T/C [26]: 0.14%; viability, T/C [27]: 0.14%; viability, T/C [28]: 0.14%; viability, T/C [29]: 1.6%; viability, T/C [30]: 0.24% |
